In PubChem BioAssay AID180 (DTP/NCI, 2004):
Several values for one entry are separate records, joined by “and”; a condition that tells them apart may be missing. Identical values can stand only once.

Tested on: BDF1 mice, Adenocarcinoma 755 s.c., tumor weight T/C
Test: NCI In Vivo Anticancer Drug Screen. Data for tumor model Adenocarcinoma 755 (subcutaneous) in B6D2F1 (BDF1) mice
Details: endpoint: mean tumor weight, higher = larger tumour
Summary of the method: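 In vivo antitumor screen on a transplantable tumor line. Result equals the measure in compound-treated animals divided by the same measure in vehicle controls.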

[1] = dose: 62.0 mg/kg/injection, schedule: Q01DX011 (ip), vehicle: methylcellulose (MC)
[2] = dose: 25.0 mg/kg/injection, schedule: Q01DX011 (ip), vehicle: saline

C/C(=N\NC(=O)c1ccncc1)c1cccc(Cl)c1 was tested, and the T/C (dose: 7.5 mg/kg/injection, schedule: Q01DX011 (ip), vehicle: methylcellulose (MC)) was 47 % of control and 50 % of control and the T/C (dose: 30.0 mg/kg/injection, schedule: Q01DX011 (ip), vehicle: methylcellulose (MC)) was 31 % of control.
Nc1nnnc2nc[nH]c12 was tested, and the T/C (dose: 12.5 mg/kg/injection, schedule: Q01DX011 (ip), vehicle: carboxymethylcellulose (CMC)) was 75 % of control.
Nc1nc(=S)cc(Nc2cccc(Cl)c2)[nH]1 was tested, and the T/C (dose: 15.0 mg/kg/injection, schedule: Q01DX011 (ip), vehicle: methylcellulose (MC)) was 91 % of control, the T/C [1] was 87 % of control and the T/C (dose: 125.0 mg/kg/injection, schedule: Q01DX011 (ip), vehicle: methylcellulose (MC)) was 51 % of control.
For CCCCN(C)/N=N/c1nc[nH]c1C(N)=O, the T/C (dose: 80.0 mg/kg/injection, schedule: Q01DX011 (ip), vehicle: carboxymethylcellulose (CMC)) was 4 % of control.
NNC(=O)NC(=O)NN was tested, and the T/C (dose: 13.06 mg/kg/injection, schedule: Q01DX011 (ip), vehicle: carboxymethylcellulose (CMC)) was 117 % of control, the T/C (dose: 26.13 mg/kg/injection, schedule: Q01DX011 (ip), vehicle: carboxymethylcellulose (CMC)) was 187 % of control and the T/C (dose: 52.25 mg/kg/injection, schedule: Q01DX011 (ip), vehicle: carboxymethylcellulose (CMC)) was 74 % of control. The T/C (dose: 104.5 mg/kg/injection, schedule: Q01DX011 (ip), vehicle: carboxymethylcellulose (CMC)) was 79 % of control, the T/C (dose: 3845.0 micrograms/kg/injection, schedule: Q01DX011 (ip), vehicle: carboxymethylcellulose (CMC)) was 207 % of control and the T/C (dose: 7690.0 micrograms/kg/injection, schedule: Q01DX011 (ip), vehicle: carboxymethylcellulose (CMC)) was 46 % of control.
With O=C(O)C(CS(=O)(=O)O)Nc1ncnc2nc[nH]c12 (centres undefined) the T/C (dose: 3.1 mg/kg/injection, schedule: Q01DX011 (ip), vehicle: saline) was 65 % of control, the T/C (dose: 6.2 mg/kg/injection, schedule: Q01DX011 (ip), vehicle: saline) was 40 % of control and the T/C (dose: 12.5 mg/kg/injection, schedule: Q01DX011 (ip), vehicle: saline) was 40 % of control and 43 % of control. The T/C (dose: 18.75 mg/kg/injection, schedule: Q01DX011 (ip), vehicle: saline) was 38 % of control, the T/C [2] was 10 % of control and the T/C (dose: 28.12 mg/kg/injection, schedule: Q01DX011 (ip), vehicle: saline) was 12 % of control. For the same molecule, the T/C (dose: 45.0 mg/kg/injection, schedule: Q01DX011 (ip), vehicle: saline) was 4 % of control, the T/C (dose: 75.0 mg/kg/injection, schedule: Q01DX011 (ip), vehicle: saline) was 7 % of control and the T/C (dose: 225.0 mg/kg/injection, schedule: Q01DX011 (ip), vehicle: saline) was 7 % of control.
With C[N+]1(C)CCN(C(=O)CCCl)CC1 the T/C (dose: 3.1 mg/kg/injection, schedule: Q01DX011 (ip), vehicle: other) was 47 % of control, the T/C (dose: 6.2 mg/kg/injection, schedule: Q01DX011 (ip), vehicle: other) was 93 % of control and the T/C (dose: 12.5 mg/kg/injection, schedule: Q01DX011 (ip), vehicle: other) was 66 % of control.
COc1cc2c(cc1I)-c1c(cc(OC)c(OC)c1OC)CC[C@@H]2NC(C)=O was tested, and the T/C (dose: 27.5 mg/kg/injection, schedule: Q01DX011 (ip), vehicle: carboxymethylcellulose (CMC)) was 98 % of control, the T/C (dose: 27.5 mg/kg/injection, schedule: Q01DX011 (ip), vehicle: saline) was 106 % of control and the T/C (dose: 55.0 mg/kg/injection, schedule: Q01DX011 (ip), vehicle: carboxymethylcellulose (CMC)) was 81 % of control. For the same molecule, the T/C (dose: 55.0 mg/kg/injection, schedule: Q01DX011 (ip), vehicle: saline) was 86 % of control, the T/C (dose: 110.0 mg/kg/injection, schedule: Q01DX011 (ip), vehicle: carboxymethylcellulose (CMC)) was 40 % of control and the T/C (dose: 110.0 mg/kg/injection, schedule: Q01DX011 (ip), vehicle: saline) was 58 % of control. The T/C (dose: 220.0 mg/kg/injection, schedule: Q01DX011 (ip), vehicle: saline) was 16 % of control.
For Cc1cnc(SCc2ccc(Cl)cc2Cl)nc1N(C)C, the T/C [1] was 55 % of control.
In the case of [N-]=[N+]=C1N=CN=C1c1ncn[nH]1, the T/C (dose: 25.0 mg/kg/injection, schedule: Q01DX011 (ip), vehicle: carboxymethylcellulose (CMC)) is reported as 103 % of control.
For C/C=C1\CN(C)[C@H]2Cc3c([nH]c4ccccc34)[C@@H](c3cc4[nH]c5c(c4cc3OC)CCN3C[C@H]4C[C@H](CC)[C@H]3[C@@]5(C(=O)OC)C4)C[C@H]1C2C(=O)OC (some centres undefined), the T/C (dose: 30.0 mg/kg/injection, schedule: Q01DX011 (ip), vehicle: water) was 58 % of control, the T/C (dose: 35.0 mg/kg/injection, schedule: Q01DX006 (ip), vehicle: water) was 57 % of control and the T/C (dose: 45.0 mg/kg/injection, schedule: Q01DX011 (ip), vehicle: water) was 41 % of control. For the same molecule, the T/C (dose: 50.0 mg/kg/injection, schedule: Q01DX006 (ip), vehicle: water) was 61 % of control and 69 % of control, the T/C (dose: 70.0 mg/kg/injection, schedule: Q01DX006 (ip), vehicle: water) was 51 % of control and the T/C (dose: 80.0 mg/kg/injection, schedule: Q01DX006 (ip), vehicle: water) was 54 % of control.
In the case of CN(C)[C@@H]1C(=O)C(C(=O)NCNc2nc3n[nH]nc3c(=O)[nH]2)=C(O)[C@@]2(O)C(=O)C3=C(O)c4c(O)cccc4[C@@](C)(O)[C@H]3C[C@@H]12, the T/C [2] is reported as 89 % of control, the T/C (dose: 50.0 mg/kg/injection, schedule: Q01DX011 (ip), vehicle: saline) is reported as 93 % of control and the T/C (dose: 100.0 mg/kg/injection, schedule: Q01DX011 (ip), vehicle: saline) is reported as 79 % of control. The T/C (dose: 200.0 mg/kg/injection, schedule: Q01DX011 (ip), vehicle: saline) was 40 % of control.
